The source of these data is PubChem BioAssay (NCI).

Among the test systems are M14 melanoma; ACHN renal; PC-3 prostate; SR leukemia; SNB-75 CNS; TK-10 renal; A549 NSCLC; 786-0 renal; RPMI-8226 leukemia; A498 renal.
What all share (assay): DTP human tumour cell line panel, 48 h

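Step 1: Grow cells in 96-well plates. Step 2: Expose to compound for 48 hours at 5 concentrations. Step 3: Interpolate endpoints linearly; if unreached, use highest concentration. At the GI50, growth is halved. TGI denotes the concentration required for complete inhibition of growth.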

Broadly, the GI50 is the concentration at which growth is held to half of that of the control. As usually defined, the TGI is the concentration at which net growth stops. A high value points to lower sensitivity of the cells.

`CC(C)(O)c1cc(Nc2cc(Oc3cn(C4CC4)nc3C3CCOCC3)ccn2)ccn1`: the GI50 in the assay on M14 melanoma was 89.1 µM; in the assay on ACHN renal, over 100 µM; in the assay with PC-3 prostate it was 88.1 µM; with SR leukemia, over 100 µM; with SNB-75 CNS, 22 µM; in the assay on TK-10 renal, 69.8 µM. The GI50 in the assay on A549 NSCLC is over 100 µM; in the assay on 786-0 renal, 53.1 µM; in the assay with RPMI-8226 leukemia, 33.7 µM; in the assay with A498 renal, 63.1 µM. Also, the TGI with M14 melanoma, in the assay with ACHN renal, with PC-3 prostate, in the assay on SR leukemia, with SNB-75 CNS and in the assay on TK-10 renal was over 100 µM in each case. For the same compound, the TGI with A549 NSCLC, in the assay on 786-0 renal, with RPMI-8226 leukemia and in the assay with A498 renal was over 100 µM in each case.

For the compound `CC(=O)c1nc(-c2ccc(C[C@@H](CNC(=O)CN(C)C)NC(=O)c3ccc(OC(C)C)c(Cl)c3)cc2)cn1C`, the GI50 was 0.0317 µM in the assay with M14 melanoma; 1.01 µM in the assay with ACHN renal; 0.0652 µM with PC-3 prostate; 0.0506 µM with SR leukemia; 0.0761 µM with SNB-75 CNS; 12.1 µM in the assay on TK-10 renal. Further, the GI50 in the assay with A549 NSCLC was 0.0518 µM; in the assay on 786-0 renal it was 0.0851 µM; in the assay with RPMI-8226 leukemia, 0.0413 µM; in the assay on A498 renal, 0.0407 µM. Further, the TGI in the assay on M14 melanoma worked out at 2.54 µM; with ACHN renal, 20.2 µM; in the assay on PC-3 prostate, 19.6 µM; in the assay on SR leukemia it was 12.6 µM; in the assay with SNB-75 CNS it was 13.9 µM; with TK-10 renal it was 25 µM. Also, the TGI in the assay with A549 NSCLC worked out at 19.1 µM; in the assay with 786-0 renal, 17.1 µM; in the assay on RPMI-8226 leukemia, 23.2 µM; with A498 renal, 2.04 µM.

Turning to `CCOC(=O)C(Cc1cc(OC)c(CC(C(=O)OCC)C(=O)OCC)cc1OC)C(=O)OCC`, the TGI in the assay on M14 melanoma is over 100 µM; in the assay with ACHN renal, over 100 µM; with PC-3 prostate, over 100 µM; with SR leukemia, over 100 µM; in the assay with SNB-75 CNS, 57.6 µM; in the assay with TK-10 renal it was over 100 µM. Further, the concentration for total growth inhibition (TGI) in the assay on A549 NSCLC, with 786-0 renal, with RPMI-8226 leukemia and in the assay on A498 renal was over 100 µM in each case.

Turning to `O=C(OCC1=CC(=O)c2ccccc2C1=O)c1ccccc1`, the GI50 was 1.72 µM in the assay on M14 melanoma; 15 µM with ACHN renal; 14.1 µM in the assay with PC-3 prostate; 3.51 µM with SR leukemia; 14.7 µM with SNB-75 CNS; 15.9 µM with TK-10 renal. Further, the GI50 in the assay on A549 NSCLC is 2.41 µM; in the assay on 786-0 renal it was 18.9 µM; in the assay on RPMI-8226 leukemia, 21.3 µM; in the assay with A498 renal, 18.6 µM. The TGI in the assay on M14 melanoma amounted to 3.59 µM; in the assay with ACHN renal, 28.4 µM; in the assay on PC-3 prostate, 38 µM; with SR leukemia it was 30.8 µM; in the assay with SNB-75 CNS it was 29.4 µM; in the assay with TK-10 renal, 29.6 µM. Besides, the TGI in the assay with A549 NSCLC was 6.24 µM; in the assay on 786-0 renal it was 33.8 µM; in the assay with RPMI-8226 leukemia, over 100 µM; in the assay on A498 renal, 36.8 µM.

On to `CC(C)(C)OC(=O)NCCCCCCCCCCCCn1c2c(c3ccccc3c1=O)C(=O)c1ccccc1-2`, for which the GI50 in the assay with M14 melanoma was over 100 µM; with ACHN renal, 21.1 µM; with PC-3 prostate, over 100 µM; with SR leukemia it was 35 µM; in the assay on SNB-75 CNS, 8.56 µM; in the assay with TK-10 renal, 19.1 µM. Further, the GI50 with A549 NSCLC was over 100 µM; with 786-0 renal, 18.3 µM; in the assay with RPMI-8226 leukemia it was over 100 µM; in the assay with A498 renal it was 24.7 µM. In addition, the TGI in the assay with M14 melanoma was over 100 µM; with ACHN renal, 54.7 µM; in the assay with PC-3 prostate it was over 100 µM; with SR leukemia it was over 100 µM; in the assay with SNB-75 CNS, 26.3 µM; in the assay on TK-10 renal, 45.5 µM. Further, the TGI with A549 NSCLC is over 100 µM; with 786-0 renal, 50.6 µM; with RPMI-8226 leukemia, over 100 µM; in the assay with A498 renal it was 68.7 µM.

As to `Cc1cc(C)nc(NC(=O)COc2ccc(Cl)cc2)c1`, the total growth inhibition concentration (TGI) with M14 melanoma, in the assay on ACHN renal, in the assay with PC-3 prostate, in the assay on SR leukemia, in the assay on SNB-75 CNS and in the assay on TK-10 renal was over 100 µM throughout. Besides, the TGI in the assay with A549 NSCLC, with 786-0 renal, with RPMI-8226 leukemia and with A498 renal was over 100 µM each time.

For the compound `CCOC(=O)/C=C/c1ccc([N+](=O)[O-])o1`, the GI50 in the assay on M14 melanoma was 2.71 µM; in the assay on ACHN renal it was 1.75 µM; in the assay with PC-3 prostate, 11.8 µM; with SR leukemia it was 1.64 µM; with SNB-75 CNS it was 4.6 µM; in the assay with TK-10 renal, 4.7 µM. The GI50 was 25.3 µM in the assay with A549 NSCLC, 2.13 µM in the assay with 786-0 renal, 3.18 µM in the assay with RPMI-8226 leukemia and 21 µM in the assay with A498 renal. The TGI came out at 8.74 µM with M14 melanoma; 3.8 µM in the assay with ACHN renal; 39.9 µM in the assay on PC-3 prostate; 26.1 µM in the assay on SR leukemia; 94 µM in the assay with SNB-75 CNS; 16.3 µM with TK-10 renal. The total growth inhibition concentration (TGI) was over 100 µM in the assay on A549 NSCLC, 4.67 µM in the assay on 786-0 renal, 12.2 µM in the assay with RPMI-8226 leukemia and 48.8 µM in the assay on A498 renal.

On to `CCCCC[C@H]1C/C=C2/C(=O)C=C[C@@H]2C/C=C\CCCC(=O)O1`, for which the GI50 was 0.163 µM in the assay on M14 melanoma; 0.0987 µM in the assay on ACHN renal; 0.165 µM in the assay with PC-3 prostate; 0.124 µM in the assay on SR leukemia; 0.227 µM with SNB-75 CNS; 0.171 µM with TK-10 renal. For the same compound, the GI50 with A549 NSCLC is 0.115 µM; with 786-0 renal, 0.164 µM; with RPMI-8226 leukemia, 0.117 µM; in the assay on A498 renal, 0.193 µM. Besides, the total growth inhibition concentration (TGI) is 5.1 µM with M14 melanoma; 0.202 µM with ACHN renal; 0.844 µM with PC-3 prostate; 50 µM in the assay on SR leukemia; 1.98 µM in the assay on SNB-75 CNS; 0.41 µM with TK-10 renal. Moreover, the concentration for total growth inhibition (TGI) amounted to 0.313 µM in the assay on A549 NSCLC, 0.489 µM in the assay with 786-0 renal, 0.366 µM in the assay on RPMI-8226 leukemia and 0.878 µM in the assay with A498 renal.

`COc1ccc(/C=C(\C#N)c2cc(OC)c(OC)c(OC)c2)cc1`: the GI50 is 0.0269 µM with M14 melanoma; 0.0478 µM in the assay on ACHN renal; 0.0308 µM with PC-3 prostate; under 0.01 µM in the assay on SR leukemia; 0.0297 µM with SNB-75 CNS; 0.0288 µM in the assay with A549 NSCLC. Besides, the GI50 in the assay with 786-0 renal was 0.0309 µM; in the assay with RPMI-8226 leukemia, 0.0483 µM; in the assay with A498 renal, 0.0123 µM. Besides, the TGI in the assay with M14 melanoma was over 100 µM; in the assay with ACHN renal, over 100 µM; with PC-3 prostate it was over 87.1 µM; in the assay with SNB-75 CNS, over 100 µM; in the assay with TK-10 renal, over 100 µM; in the assay on A549 NSCLC, over 75.2 µM. Besides, the TGI in the assay with 786-0 renal worked out at 34.6 µM; in the assay with RPMI-8226 leukemia it was 27 µM; in the assay on A498 renal, 1.58 µM.

As to `CCOC1=C/C(=N\Nc2ccc([N+](=O)[O-])cc2)CCC1`, the TGI with M14 melanoma was over 100 µM; in the assay with ACHN renal, 34.8 µM; with PC-3 prostate, over 100 µM; in the assay on SR leukemia it was over 100 µM; with SNB-75 CNS, 73.1 µM; in the assay with TK-10 renal, over 100 µM. The TGI in the assay with A549 NSCLC, in the assay with 786-0 renal, in the assay with RPMI-8226 leukemia and in the assay with A498 renal was over 100 µM each time.
